Article PMC8041284, “Tunable Methacrylamides for Covalent Ligand Directed Release Chemistry” (Journal of the American Chemical Society, 2021)
Read-outs that look alike come from different tables or passages of the source. *1 amine or outer side, *2 acyl side, *3 side chain or, on linkers, in order; H or OH if unused. Where a SMILES comes first, the peptide text is derived from it. Bridges are numbered along the chain shown (N, C = ends). [ ]: non-standard residue; d: D form. The star is where a group is joined. Orn(4R-OH,5R-OH) = O=C([C@H](C[C@@H](O)[C@@H](O)N[*:3])N[*:1])[*:2]; Tetradecanoyl(10R,12S-Me2) = CC[C@H](C)C[C@H](C)CCCCCCCCC(=O)*; hTyr(3S-OH,4S-OH) = N[C@H](C(=O)O)[C@H](O)[C@@H](O)c1ccc(O)cc1; Gln(3R-OH) = NC(=O)C[C@@H](O)[C@H](N)C(=O)O; Pro(3S-OH) = O=C(O)[C@H]1NCC[C@@H]1O; Hyp = O=C(O)[C@@H]1C[C@@H](O)CN1

Biological target: BTK (Homo sapiens, UniProt Q06187)
Sequence (Q06187 402-655 limits assumed): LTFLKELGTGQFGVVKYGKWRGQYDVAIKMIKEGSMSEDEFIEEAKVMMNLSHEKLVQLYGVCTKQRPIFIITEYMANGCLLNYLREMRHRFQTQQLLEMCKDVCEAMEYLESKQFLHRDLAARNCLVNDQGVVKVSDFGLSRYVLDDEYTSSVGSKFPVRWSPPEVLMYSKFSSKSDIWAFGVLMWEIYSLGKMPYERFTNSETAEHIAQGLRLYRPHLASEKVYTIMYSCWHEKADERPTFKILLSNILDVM
Assay: biochemical
[1] = read-out: BTK inhibition (%), 0.75 uM BTK, […] probe 3l, 15 min preincubation

Row | SMILES | inhibition at 10 µM [1] [%] | inhibition at 10 µM (read-out: BTK inhibition (%)) [%]
1 | CN1CCN(Cc2ccc(NC(=O)Nc3ccc(Oc4ccnc(N)n4)cc3)cc2C(F)(F)F)CC1 [PCM-0215587] | 31 | –
2 | COc1ccccc1-c1cc(Nc2cccc(CS(N)(=O)=O)c2)ncn1 [PCM-0095804] | 2.8 | –
3 | CCCCCCCCCCCCCCCC(=O)OCC [PCM-0216630] | -12.4 | –
4 | C/C(=C\CO)CCC[C@H](C)CCC[C@H](C)CCCC(C)C [PCM-0215913] | 3.9 | –
5 | N#C/C=C1/C=C[C@@H](O)[C@H](O)[C@H]1O[C@@H]1O[C@H](CO)[C@@H](O)[C@H](O)[C@H]1O [PCM-0216369] | -11.6 | –
6 | Cc1nc(-c2cn3c(n2)-c2ccc(-c4cnn(C(C)(C)C(N)=O)c4)cc2OCC3)n(C(C)C)n1 [PCM-0215518] | 0 | –
7 | N#CC(c1ccc(Cl)cc1)c1c(Cl)cc(-n2ncc(=O)[nH]c2=O)cc1Cl (stereo not shown) [PCM-0086206] | -0.8 | –
8 | COc1ccc(-c2oc3c(CC=C(C)C)c(O[C@@H]4O[C@H](CO)[C@@H](O)[C@H](O)[C@H]4O)cc(O)c3c(=O)c2O[C@@H]2O[C@@H](C)[C@H](O)[C@@H](O)[C@H]2O)cc1 [PCM-0094858] | -0.8 | –
9 | c1ccc(CNCc2ccc(CN3CCCNCCNCCCNCC3)cc2)nc1 [PCM-0215781] | -2.6 | –
10 | CN1CCC(=C2c3ccccc3CCn3c(C=O)cnc32)CC1 [PCM-0214821] | 2.1 | –
11 | O=C(O)c1ccccc1 [PCM-0090294] | -1.6 | –
12 | CCCCCCCCCCCCCCCC(=O)OC [PCM-0216632] | 25.5 | –
13 | CNCC[C@@H](Oc1ccccc1C)c1ccccc1 [PCM-0086150] | 11.7 | –
14 | C/C(=C\CNc1ncnc2c1ncn2[C@@H]1O[C@H](CO)[C@@H](O)[C@H]1O)CO [PCM-0216644] | 0.8 | –
15 | C/C=C/c1ccc(OC)cc1 [PCM-0090331] | 18.7 | –
16 | CC1=C(C(=O)Nc2cc3cn[nH]c3cc2F)C(c2ccc(C(F)(F)F)cc2)CC(=O)N1 (stereo not shown) [PCM-0095153] | 48.3 | –
17 | N[C@@H]1CONC1=O [PCM-0064462] | -11.9 | –
18 | O=C1Cc2c([nH]c3ccc(Br)cc23)-c2ncccc2N1 [PCM-0215289] | -2.1 | –
19 | CC(C)=CCC/C(C)=C/CC/C(C)=C/CC/C=C(\C)CC/C=C(\C)CCC=C(C)C [PCM-0216030] | -9.7 | –
20 | Cn1cc(-c2ccc3nnc(Sc4ccc5ncccc5c4)n3n2)cn1 [PCM-0094898] | -3.4 | –
21 | CC(=O)N[C@@H](CC(C)C)C(=O)N[C@@H](CC(C)C)C(=O)N[C@H](C=O)CCCN=C(N)N [PCM-0215331] | 9.3 | –
22 | Oc1c(Cl)cc(Cl)c2cccnc12 [PCM-0085913] | -0.8 | –
23 | Nc1ncnc2c1ncn2C(C=O)OC(C=O)CO (stereo not shown) [PCM-0215903] | 0.8 | –
24 | COc1cc2c(cc1OC(C)C)[C@H](c1ccc(Cl)cc1)N(c1ccc(N(C)CC3CCC(N4CCN(C)C(=O)C4)CC3)cc1)C(=O)C2 (stereo partly shown) [PCM-0215723] | 57.9 | –

Row | SMILES | inhibition at 10 µM [1] [%] | inhibition at 10 µM (read-out: BTK inhibition (%)) [%]
25 | NCC[C@H](O)C(=O)N[C@@H]1C[C@H](N)[C@@H](O[C@H]2O[C@H](CN)[C@@H](O)[C@H](O)[C@H]2O)[C@H](O)[C@H]1O[C@H]1O[C@H](CO)[C@@H](O)[C@H](N)[C@H]1O [PCM-0215174] | 9.4 | –
26 | CC(=O)OC/C=C(\C)CCC=C(C)C [PCM-0216003] | 2.3 | –
27 | O=C1CN(/N=C/C=C/c2ccc([N+](=O)[O-])o2)C(=O)N1 [PCM-0214924] | -7.8 | –
28 | Cc1ccc(-n2sc(=O)n(Cc3ccc(F)cc3)c2=O)cc1 [PCM-0095367] | -12.5 | –
29 | C#C[C@]1(O)CC[C@H]2[C@@H]3CCC4=CC(=O)CC[C@@H]4[C@H]3CC[C@@]21C [PCM-0085792] | 3.1 | –
30 | O=CC1OC(=O)c2cc(O)c(O)c(O)c2-c2c(cc(O)c(O)c2O)C(=O)OC1C1OC(=O)c2cc(O)c(O)c(O)c2-c2c(O)c(O)c3oc(=O)c4c(c(O)c(O)c5oc(=O)c2c3c54)-c2c(cc(O)c(O)c2O)C(=O)OCC1O (stereo not shown) [PCM-0216414] | 27 | –
31 | O=C(Nc1cccc(C(F)(F)F)c1)Nc1cc(S(=O)(=O)NC2CC2)ccc1-c1ccsc1 [PCM-0095800] | 27 | –
32 | CC(=O)O[C@H]1CC/C(C)=C/CC/C(C)=C/C[C@]2(C(C)C)CC[C@@]1(C)O2 [PCM-0216348] | -10 | –
33 | COc1ccc(-c2cc(=O)c3c(O)cc(O[C@@H]4O[C@H](CO[C@@H]5O[C@@H](C)[C@H](O)[C@@H](O)[C@H]5O)[C@@H](O)[C@H](O)[C@H]4O)cc3o2)cc1O [PCM-0087491] | -5.1 | –
34 | C[C@]12CC[C@@H]3c4ccc(O)cc4CC[C@H]3[C@@H]1CC[C@@H]2OC(=O)CCC1CCCC1 [PCM-0214748] | 0.8 | –
35 | CC(C)c1cc(-c2n[nH]c(=O)n2-c2ccc3c(ccn3C)c2)c(O)cc1O [PCM-0094991] | 12.4 | –
36 | O=c1[nH]c(-c2ccc(C(F)(F)F)cc2)nc2c1CSCC2 [PCM-0095054] | -25.5 | –
37 | COc1cc2c(cc1OC)CN(C(=O)/C=C/c1c(-c3ccccc3)n(C)c3ncccc13)CC2 [PCM-0215686] | 37.8 | –
38 | CC1=C(C(=O)OC(C)C)C(c2cccc([N+](=O)[O-])c2)C(C(=O)OC2CN(C(c3ccccc3)c3ccccc3)C2)=C(N)N1 (stereo not shown) [PCM-0095544] | 70 | –
39 | CC(COc1ccccc1Cc1ccccc1)N1CCCCC1 (stereo not shown) [PCM-0216136] | -17 | –
40 | CO[C@H]1[C@@H](O)[C@H](O[C@@H]2[C@@H](C)O[C@@H](O[C@H]3CC[C@@]4(C)[C@@H](CC[C@@]56O[C@@]57CC[C@@H](C(C)=O)[C@@]7(C)[C@H](OC(C)=O)[C@@H](OC(=O)c5ccccc5)[C@H]46)C3)C[C@H]2OC)O[C@H](C)[C@H]1O [PCM-0216600] | -12.4 | –
41 | CN/C(=C\[N+](=O)[O-])NCCSCc1ccc(CN(C)C)o1 [PCM-0065476] | -3.4 | –
42 | CC(=O)c1cc([N+](=O)[O-])c(Sc2ccc(F)cc2F)s1 [PCM-0215212] | 5.4 | –
43 | CC1(C)S[C@@H]2[C@H](NC(=O)C(C(=O)O)c3ccccc3)C(=O)N2[C@H]1C(=O)O (stereo partly shown) [PCM-0214723] | 10.1 | –
44 | O=C1C(=Cc2ccncc2)CCCC1=Cc1ccncc1 [PCM-0216087] | -4.1 | –
45 | Cc1ccc(C=O)o1 [PCM-0216625] | -5.4 | –
46 | CC(=O)[C@@]1(O)CC[C@H]2[C@@H]3C[C@H](C)C4=CC(=O)CC[C@]4(C)[C@H]3CC[C@@]21C [PCM-0214898] | -7.8 | –
47 | CC(C(=O)O)c1ccc2c(c1)Cc1cccnc1O2 (stereo not shown) [PCM-0086477] | -11.7 | –
48 | CN(C)c1ccc2nc3c(C(=O)O)cc(=O)c(O)c-3oc2c1 [PCM-0216583] | 88 | –

Row | SMILES | inhibition at 10 µM [1] [%] | inhibition at 10 µM (read-out: BTK inhibition (%)) [%]
49 | CC1(COc2ccc3c(c2)ncn3-c2ccc3cccc(N4CCC(N)CC4)c3n2)COC1 [PCM-0095459] | 6.2 | –
50 | CCCCCCCCCCC[C@@H](C[C@@H]1OC(=O)[C@H]1CCCCCC)OC(=O)[C@H](CC(C)C)NC=O [PCM-0095181] | -13.2 | –
51 | COc1c(C)c(O)cc2[o+]c(-c3ccccc3)ccc12 [PCM-0216513] | 38.6 | –
52 | O=C(O)CCC1CCC(c2cc(F)ccc2F)(S(=O)(=O)c2ccc(Cl)cc2)CC1 (stereo not shown) [PCM-0095325] | -15.2 | –
53 | COc1ccc(C(=O)Nc2sc3c(c2C(N)=O)CCCC3)cc1OC [PCM-0095611] | 6.9 | –
54 | Cc1cc(NS(=O)(=O)c2ccc(N)cc2)nc(C)n1 [PCM-0216097] | 11 | –
55 | Cc1ccc(S(=O)(=O)NC(=O)NN2CC3CCCC3C2)cc1 (stereo not shown) [PCM-0086156] | -2.3 | –
56 | CC[C@H](C)C[C@H](C)CCCCCCCCC(=O)N[C@H]1C[C@@H](O)[C@@H](O)NC(=O)[C@@H]2[C@@H](O)CCN2C(=O)[C@H]([C@H](O)CC(N)=O)NC(=O)[C@H]([C@H](O)[C@@H](O)c2ccc(O)cc2)NC(=O)[C@@H]2C[C@@H](O)CN2C(=O)[C@H]([C@@H](C)O)NC1=O [PCM-0216459] ({Tetradecanoyl(10R,12S-Me2)}-[Orn(4R-OH,5R-OH)]T[Hyp][hTyr(3S-OH,4S-OH)][Gln(3R-OH)][Pro(3S-OH)]; lactam 1-C) | -42.5 | –
57 | COc1cc(S(=O)(=O)O)ccc1O [PCM-0215143] | -7 | –
58 | C[C@@H](Oc1ccc2[nH]nc(/C=C/c3cnn(CCO)c3)c2c1)c1c(Cl)cncc1Cl [PCM-0215376] | 101 | –
59 | CN1CCC(COc2cnc(-c3cccc(Cn4nc(-c5cccc(C#N)c5)ccc4=O)c3)nc2)CC1 [PCM-0215322] | 22.1 | –
60 | Nc1ccc(Cl)cc1C(=O)C(F)(F)F [PCM-0216158] | 23.2 | –
61 | N#C/C(=C1/SC[C@@H](c2ccc(Cl)cc2Cl)S1)n1ccnc1 [PCM-0214788] | 3.9 | –
62 | CN1CCCCC1Cn1cc(C(=O)c2cc([N+](=O)[O-])ccc2I)c2ccccc21 (stereo not shown) [PCM-0095105] | – | 22.6
63 | Oc1ccc(Cc2nc3c(Cc4ccccc4)nc(-c4ccc(O)cc4)cn3c2O)cc1 [PCM-0215560] | 91.1 | –
64 | CC1(C)CCCC2(C)OC(=O)C=C12 (stereo not shown) [PCM-0214965] | 8.6 | –
65 | CC1CCc2c(N3CCC(O)CC3)c(F)cc3c(=O)c(C(=O)O)cn1c23 (stereo not shown) [PCM-0086338] | 1.6 | –
66 | O=C(/C=C/c1ccc(O)cc1)C1=C(O)[C@](O)([C@@H]2O[C@H](CO)[C@@H](O)[C@H](O)[C@H]2O)C(O)=C(/C=C2/C(=O)C(C(=O)/C=C/c3ccc(O)cc3)=C(O)[C@@](O)([C@@H]3O[C@H](CO)[C@@H](O)[C@H](O)[C@H]3O)C2=O)C1=O [PCM-0215966] | -1.5 | –
67 | C[C@@H]1CC[C@@]2(NC1)O[C@H]1C[C@H]3[C@@H]4CC=C5C[C@@H](O[C@@H]6O[C@H](CO)[C@@H](O[C@@H]7O[C@@H](C)[C@H](O)[C@@H](O)[C@H]7O)[C@H](O)[C@H]6O[C@@H]6O[C@@H](C)[C@H](O)[C@@H](O)[C@H]6O)CC[C@]5(C)[C@H]4CC[C@]3(C)[C@H]1[C@@H]2C [PCM-0216423] | 17.8 | –
68 | C=CCS[S+]([O-])CC=C (stereo not shown) [PCM-0215928] | -21 | –
69 | C[C@@]12C[C@@H](c3ccoc3)OC(=O)[C@@H]1CC[C@]1(C)[C@H]2[C@@H]2C=C[C@@]1(O)C(=O)O2 [PCM-0216442] | – | 0
70 | C=C[C@@]1(C)CC(=O)[C@]2(O)[C@@]3(C)[C@@H](O)CCC(C)(C)[C@@H]3[C@H](O)[C@H](OC(C)=O)[C@@]2(C)O1 [PCM-0095317] | -17.1 | –
